Measured values reported in PubChem BioAssay (NCI).
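Assay format: 96-well plates, 48-hour exposure. GI50: concentration for 50% inhibition of growth. TGI denotes the concentration required for complete inhibition of growth.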

What was measured:
Experiment in all cases: NCI tumour cell line growth inhibition, 48 h
[1] = test system: A549 NSCLC
[2] = test system: EKVX NSCLC
[3] = test system: KM12 colon
[4] = test system: MALME-3M melanoma
[5] = test system: NCI-H460 lung
[6] = test system: NCI-H522 lung
[7] = test system: OVCAR-3 ovarian
[8] = test system: OVCAR-8 ovarian
[9] = test system: PC-3 prostate
[10] = test system: UO-31 renal

SMILES	TGI [1]	TGI [2]	TGI [3]	TGI [4]	TGI [5]	TGI [6]	TGI [7]	TGI [8]	TGI [9]	TGI [10]	GI50 [1]	GI50 [2]	GI50 [3]	GI50 [4]	GI50 [5]	GI50 [6]	GI50 [7]	GI50 [8]	GI50 [9]	GI50 [10]
COc1cccc(N(CN2C(=O)CCC2C(=O)O)C(C)=O)c1 (stereo not given)	> 100 µM	> 100 µM	> 100 µM	> 100 µM	> 100 µM	> 100 µM	> 100 µM	> 100 µM	> 100 µM	> 100 µM										
CN1CCN(Cc2ccc(NC(=O)c3cccc(C#Cc4cnc(N)c5ncccc45)c3F)cc2C(F)(F)F)CC1	1.58 µM	13.7 µM	6.51 µM	1.4 µM	1.37 µM	1.47 µM	12 µM	1.78 µM	9.56 µM	1.54 µM	747 nM	6.57 µM	332 nM	675 nM	561 nM	587 nM	5.07 µM	828 nM	2020 nM	849 nM
CCOc1cc2oc(C)cc(=O)c2c(OC)c1C=Nc1ccc(Cn2c(C)nc3ccccc32)cc1	> 100 µM	> 100 µM	> 100 µM	> 100 µM	> 100 µM	> 100 µM	> 100 µM	> 100 µM	> 100 µM	> 100 µM										
CCOC(=O)C(NC(=O)c1ccccc1)(Nc1ccc(Cl)cc1C(F)(F)F)C(F)(F)F (stereo not given)	> 100 µM	> 100 µM	5.17 µM	22.1 µM	> 52.3 µM	7.29 µM	18.7 µM	> 100 µM	29.2 µM	> 100 µM										
O=c1cn[nH]c(=S)n1/N=C/c1c[nH]c2ccccc12	> 100 µM	> 100 µM	> 100 µM	> 100 µM	> 100 µM	> 100 µM	> 100 µM	93.9 µM	> 100 µM	> 100 µM										
